US20240300976A1, “COMPOUNDS AS MODULATORS OF ENDOPLASMIC RETICULUM AMINOPEPTIDASE 1 (ERAP1)” (GREY WOLF THERAPEUTICS LIMITED, priority 2020, published 2024)

Molecular target: T1, ERAP1 (Homo sapiens, UniProt Q9NZ08)
T1 construct: Purified ERAP1(37-941)-10His (ERAP1); 10His (C)
Experiment: ERAP1 mediated hydrolysis of an amide substrate (10-mer inhibition assay), biochemical system
Settings: 10-mer substrate, incubated at 23° C. for 1 h, excitation 279 nm and emission 355 nm; read-out: IC50 vs Decapeptide WRVYEKC(Dnp)ALK-acid (where Dnp is Dinitrophenyl maleimide) (10-mer)
From the text: This peptide has minimal fluorescence as the N-terminal tryptophan residue's fluorescence is quenched by the dinitrophenol (DNP) residue within the peptide. However, as ERAP1 hydrolyses the N-terminal amide bond and tryptophan is released this internal quenching is lost and the reaction is monitored by the increase in tryptophan fluorescence over the course of the assay. For the purposes of this application this assay is referred to as the “1 Omer inhibition assay” and compound potencies are calculated and expressed as 1050 as would be familiar to a person skilled in the art.
Biological Assay 1: ERAP1 Mediated Hydrolysis of an Amide Substrate Measured in a Biochemical System
• 1× Assay buffer (AB): 25 mM Bis-tris propane, 0.05% w/v Hydroxypropylmethylcellulose pH 7.75 made with Optima grade water • Decapeptide WRVYEKC(Dnp)ALK-acid (where Dnp is Dinitrophenyl maleimide) (10-mer) • L-Leucine 7-amido-4-methylcoumarin (L-AMC) • Purified ERAP1(37-941)-10His (ERAP1)
12.5 μL ERAP1 enzyme in 1×AB was combined with 250 nL test compound in DMSO. 12.5 μL of either 240 μM L-AMC in 1×AB or 100 μM 10-mer in 1×AB was added to the reaction and incubated at 23° C. for 1 h. For detection, plates were read at excitation 365 nm and emission 442 nm (L-AMC) or excitation 279 nm and emission 355 nm (10-mer). Compound IC50 was determined using a 4-parameter equation.

T1 sequence (Q9NZ08 37-941): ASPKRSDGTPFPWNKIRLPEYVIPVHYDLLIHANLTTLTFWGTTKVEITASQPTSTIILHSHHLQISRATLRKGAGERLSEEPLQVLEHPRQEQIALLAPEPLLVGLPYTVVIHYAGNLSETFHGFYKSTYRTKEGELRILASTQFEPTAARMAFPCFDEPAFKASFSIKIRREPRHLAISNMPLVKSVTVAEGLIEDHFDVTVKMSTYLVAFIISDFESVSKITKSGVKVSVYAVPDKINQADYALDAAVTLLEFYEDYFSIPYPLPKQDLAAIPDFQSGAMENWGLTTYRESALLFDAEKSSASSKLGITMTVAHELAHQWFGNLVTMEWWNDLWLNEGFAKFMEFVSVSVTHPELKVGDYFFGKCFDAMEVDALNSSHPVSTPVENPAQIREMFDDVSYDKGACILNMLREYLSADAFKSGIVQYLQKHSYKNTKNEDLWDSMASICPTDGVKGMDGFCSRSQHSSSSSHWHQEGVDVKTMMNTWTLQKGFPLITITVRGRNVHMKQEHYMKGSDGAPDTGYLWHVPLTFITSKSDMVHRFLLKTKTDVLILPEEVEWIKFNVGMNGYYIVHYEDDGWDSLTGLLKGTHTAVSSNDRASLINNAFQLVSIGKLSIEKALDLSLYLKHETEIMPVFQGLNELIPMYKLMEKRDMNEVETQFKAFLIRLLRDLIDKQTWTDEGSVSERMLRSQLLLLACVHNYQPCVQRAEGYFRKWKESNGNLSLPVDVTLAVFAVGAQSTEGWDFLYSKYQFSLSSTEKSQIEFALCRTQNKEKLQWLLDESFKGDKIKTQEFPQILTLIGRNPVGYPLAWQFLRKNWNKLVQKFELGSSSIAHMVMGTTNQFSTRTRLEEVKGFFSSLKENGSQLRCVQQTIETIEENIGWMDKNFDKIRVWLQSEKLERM

Compound | IC50 [nM]
N#Cc1cc2c(cc1F)N1CCCCC1CCCOc1ccc(C(=O)O)cc1S(=O)(=O)N2 (single isomer, unassigned) [Example 42, 2-cyano-3-fluoro-6,7,8,9,9a,10,11,12-octahydro-19H-dibenzo[b,f]pyrido[1,2-h][1]oxa[4]thia[5,8]diazacyclododecine-16-carboxylic acid 18,18-dioxide] | < 250
CS(=O)(=O)c1cc2c(cc1F)N1CCCCC1CCCCOc1ccc(C(=O)O)cc1S(=O)(=O)N2 (single isomer, unassigned) [Example 43, 3-fluoro-2-(methylsulfonyl)-7,8,9,9a,10,11,12,13-octahydro-6H, 20H-dibenzo[b,f]pyrido[1,2-h][1]oxa[4]thia[5,8]diazacyclotridecine-17-carboxylic acid 19,19-dioxide] | < 250
CS(=O)(=O)c1cc2c(cc1F)N1CCCCC1CCCCOc1ccc(C(=O)O)cc1S(=O)(=O)N2 (single isomer, unassigned) [Example 44, 3-fluoro-2-(methylsulfonyl)-7,8,9,9a,10,11,12,13-octahydro-6H, 20H-dibenzo[b,f]pyrido[1,2-h][1]oxa[4]thia[5,8]diazacyclotridecine-17-carboxylic acid 19,19-dioxide] | 250 to 1000
N#Cc1cc2c(cc1Cl)N1CCCCC1C/C=C/COc1ccc(C(=O)O)cc1S(=O)(=O)N2 (single isomer, unassigned) [Example 45, (E)-3-chloro-2-cyano-7,8,9,9a,10,13-hexahydro-6H, 20H-dibenzo[b,f]pyrido[1,2-h][1]oxa[4]thia[5,8]diazacyclotridecine-17-carboxylic acid 19,19-dioxide] | < 250
N#Cc1cc2c(cc1Cl)N1CCCCC1C/C=C/COc1ccc(C(=O)O)cc1S(=O)(=O)N2 (single isomer, unassigned) [Example 46, (E)-3-chloro-2-cyano-7,8,9,9a,10,13-hexahydro-6H, 20H-dibenzo[b,f]pyrido[1,2-h][1]oxa[4]thia[5,8]diazacyclotridecine-17-carboxylic acid 19,19-dioxide] | < 250
N#Cc1cc2c(cc1Cl)N1CCCCC1/C=C/COc1ccc(C(=O)O)cc1S(=O)(=O)N2 (single isomer, unassigned) [Example 47, (E)-3-chloro-2-cyano-6,7,8,9,9a,12-hexahydro-19H-dibenzo[b,f]pyrido[1,2-h][1]oxa[4]thia[5,8]diazacyclododecine-16-carboxylic acid 18,18-dioxide] | 250 to 1000
N#Cc1cc2c(cc1Cl)N1CCCCC1/C=C/COc1ccc(C(=O)O)cc1S(=O)(=O)N2 (single isomer, unassigned) [Example 48, (E)-3-chloro-2-cyano-6,7,8,9,9a,12-hexahydro-19H-dibenzo[b,f]pyrido[1,2-h][1]oxa[4]thia[5,8]diazacyclododecine-16-carboxylic acid 18,18-dioxide] | < 250
CS(=O)(=O)c1ccc2c(c1)NS(=O)(=O)c1cc(C(=O)O)ccc1OCCCC1CCCCN21 (single isomer, unassigned) [Example 49, 2-(methylsulfonyl)-6,7,8,9,9a,10,11,12-octahydro-19H-dibenzo[b,f]pyrido[1,2-h][1]oxa[4]thia[5,8]diazacyclododecine-16-carboxylic acid 18,18-dioxide] | < 250
CS(=O)(=O)c1ccc2c(c1)NS(=O)(=O)c1cc(C(=O)O)ccc1OCCCC1CCCCN21 (single isomer, unassigned) [Example 50, 2-(methylsulfonyl)-6,7,8,9,9a,10,11,12-octahydro-19H-dibenzo[b,f]pyrido[1,2-h][1]oxa[4]thia[5,8]diazacyclododecine-16-carboxylic acid 18,18-dioxide] | 250 to 1000
N#Cc1cc2c(cc1F)N1CCCCC1CCCCOc1ccc(C(=O)O)cc1S(=O)(=O)N2 (single isomer, unassigned) [Example 55, 2-cyano-3-fluoro-7,8,9,9a,10,11,12,13-octahydro-6H,20H-dibenzo[b,f]pyrido[1,2-h][1]oxa[4]thia[5,8]diazacyclotridecine-17-carboxylic acid 19,19-dioxide] | < 250
N#Cc1cc2c(cc1F)N1CCCCC1CCCCOc1ccc(C(=O)O)cc1S(=O)(=O)N2 (single isomer, unassigned) [Example 56, 2-cyano-3-fluoro-7,8,9,9a,10,11,12,13-octahydro-6H,20H-dibenzo[b,f]pyrido[1,2-h][1]oxa[4]thia[5,8]diazacyclotridecine-17-carboxylic acid 19,19-dioxide] | < 250
CS(=O)(=O)NC(=O)c1ccc2c(c1)S(=O)(=O)Nc1cc(C#N)c(Cl)cc1N1CCCC[C@H]1/C=C/CO2 (single isomer, unassigned) [Example 58] | > 1000
CS(=O)(=O)NC(=O)c1ccc2c(c1)S(=O)(=O)Nc1cc(C#N)c(Cl)cc1N1CCCCC1C/C=C/CO2 (single isomer, unassigned) [Example 62] | > 1000
N#Cc1cc2c(cc1Cl)N1CCCC[C@@H]1COCCOc1ccc(C(=O)O)cc1S(=O)(=O)N2 (single isomer, unassigned) [Example 67] | < 250
N#Cc1cc2c(cc1Cl)N1CCCC[C@H]1COCCOc1ccc(C(=O)O)cc1S(=O)(=O)N2 (single isomer, unassigned) [Example 68] | < 250
N#Cc1ccc2c(c1)NS(=O)(=O)c1cc(C(=O)O)ccc1OCCCC1CCCCN21 (stereo not shown) [Example 5, 2-cyano-6,7,8,9,9a,10,11,12-octahydro-19H-dibenzo[b,f]pyrido[1,2-h][1]oxa[4]thia[5,8]diazacyclododecine-16-carboxylic acid 18,18-dioxide] | < 250
N#Cc1cc2c(cc1Cl)N1CCCC[C@@H]1CCCCOc1ccc(C(=O)O)cc1S(=O)(=O)N2 [Example 52, (R)-3-chloro-2-cyano-7,8,9,9a,10,11,12,13-octahydro-6H,20H-dibenzo[b,f]pyrido[1,2-h][1]oxa[4]thia[5,8]diazacyclotridecine-17-carboxylic acid 19,19-dioxide] | < 250
N#Cc1cc2c(cc1Cl)N1CCCC[C@H]1CCCCOc1ccc(C(=O)O)cc1S(=O)(=O)N2 [Example 53, (S)-3-chloro-2-cyano-7,8,9,9a,10,11,12,13-octahydro-6H, 20H-dibenzo[b,f]pyrido[1,2-h][1]oxa[4]thia[5,8]diazacyclotridecine-17-carboxylic acid 19,19-dioxide] | < 250
N#Cc1cc2c(cc1F)N1CCCC[C@H]1CCCCOc1ccc(C(=O)O)cc1S(=O)(=O)N2 [Example 57, (S)-2-cyano-3-fluoro-7,8,9,9a,10,11,12,13-octahydro-6H, 20H-dibenzo[b,f]pyrido[1,2-h][1]oxa[4]thia[5,8]diazacyclotridecine-17-carboxylic acid 19,19-dioxide] | < 250
N#Cc1cc2c(cc1Cl)N1CCCC[C@@H]1CCCOc1ccc(C(=O)O)cc1S(=O)(=O)N2 [Example 59, (R)-3-chloro-2-cyano-6,7,8,9,9a,10,11,12-octahydro-19H-dibenzo[b,f]pyrido[1,2-h][1]oxa[4]thia[5,8]diazacyclododecine-16-carboxylic acid 18,18-dioxide] | < 250
N#Cc1cc2c(cc1Cl)N1CCCC[C@H]1CCCOc1ccc(C(=O)O)cc1S(=O)(=O)N2 [Example 60, (S)-3-chloro-2-cyano-6,7,8,9,9a,10,11,12-octahydro-19H-dibenzo[b,f]pyrido[1,2-h][1]oxa[4]thia[5,8]diazacyclododecine-16-carboxylic acid 18,18-dioxide] | < 250
N#Cc1cc2c(cc1Cl)N1CCCC[C@H]1C/C=C/COc1ccc(C(=O)O)cc1S(=O)(=O)N2 [Example 61, (S,E)-3-chloro-2-cyano-7,8,9,9a,10,13-hexahydro-6H, 20H-dibenzo[b,f]pyrido[1,2-h][1]oxa[4]thia[5,8]diazacyclotridecine-17-carboxylic acid 19,19-dioxide] | < 250
CS(=O)(=O)NC(=O)c1ccc2c(c1)S(=O)(=O)Nc1cc(C#N)c(F)cc1N1CCCC[C@H]1CCCCO2 [Example 63, (S)-2-cyano-3-fluoro-N-(methylsulfonyl)-7,8,9,9a,10,11,12,13-octahydro-6H, 20H-dibenzo[b,f]pyrido[1,2-h][1]oxa[4]thia[5,8]diazacyclotridecine-17-carboxamide 19,19-dioxide] | > 1000
CS(=O)(=O)NC(=O)c1ccc2c(c1)S(=O)(=O)Nc1cc(C#N)c(Cl)cc1N1CCCC[C@H]1CCCO2 [Example 64, (S)-3-chloro-2-cyano-N-(methylsulfonyl)-6,7,8,9,9a,10,11,12-octahydro-19H-dibenzo[b,f]pyrido[1,2-h][1]oxa[4]thia[5,8]diazacyclododecine-16-carboxamide 18,18-dioxide] | > 1000
N#Cc1cc2c(cc1Cl)N1CCCC[C@H]1COCCOc1ccc(C(=O)O)cc1S(=O)(=O)N2 [Example 69, (S)-3-chloro-2-cyano-6,7,8,9,9a,10,12,13-octahydro-20H-dibenzo[e,i]pyrido[1,2-k][1,4]dioxa[7]thia[8,11]diazacyclotridecine-17-carboxylic acid 19,19-dioxide] | < 250
